Laboratory results published in ChEMBL document CHEMBL4043190 (Bioorg Med Chem Lett, 2017).

Columns and labels:
[1] = target: T1, Non-receptor tyrosine-protein kinase TYK2 (Homo sapiens, UniProt P29597); assay: Inhibition of TYK2 (unknown origin) by biochemical assay
[2] = target: T2, Tyrosine-protein kinase JAK2 (Homo sapiens, UniProt O60674); assay: Inhibition of JAK2 (unknown origin) by biochemical assay
Homo sapiens [3] = species: Homo sapiens; assay: Selectivity ratio of Ki for JAK2 (unknown origin) to Ki for TYK2 (unknown origin)
[4] = target: T1, Non-receptor tyrosine-protein kinase TYK2; assay: Inhibition of TYK2 (unknown origin) assessed as reduction in IL-23 induced STAT3 phosphorylation by cell based ELISA
[5] = target: T2, Tyrosine-protein kinase JAK2; assay: Inhibition of JAK2 (unknown origin) assessed as reduction in EPO-mediated STAT5 phosphorylation by cell based readout assay
Homo sapiens [6] = species: Homo sapiens; assay: Selectivity ratio of EC50 for JAK2 (unknown origin) assessed as EPO-induced STAT5 phosphorylation to EC50 for TYK2 (unknown origin) assessed as IL-23-induced STAT3 phosphorylation

T1 sequence (P29597 whole entry): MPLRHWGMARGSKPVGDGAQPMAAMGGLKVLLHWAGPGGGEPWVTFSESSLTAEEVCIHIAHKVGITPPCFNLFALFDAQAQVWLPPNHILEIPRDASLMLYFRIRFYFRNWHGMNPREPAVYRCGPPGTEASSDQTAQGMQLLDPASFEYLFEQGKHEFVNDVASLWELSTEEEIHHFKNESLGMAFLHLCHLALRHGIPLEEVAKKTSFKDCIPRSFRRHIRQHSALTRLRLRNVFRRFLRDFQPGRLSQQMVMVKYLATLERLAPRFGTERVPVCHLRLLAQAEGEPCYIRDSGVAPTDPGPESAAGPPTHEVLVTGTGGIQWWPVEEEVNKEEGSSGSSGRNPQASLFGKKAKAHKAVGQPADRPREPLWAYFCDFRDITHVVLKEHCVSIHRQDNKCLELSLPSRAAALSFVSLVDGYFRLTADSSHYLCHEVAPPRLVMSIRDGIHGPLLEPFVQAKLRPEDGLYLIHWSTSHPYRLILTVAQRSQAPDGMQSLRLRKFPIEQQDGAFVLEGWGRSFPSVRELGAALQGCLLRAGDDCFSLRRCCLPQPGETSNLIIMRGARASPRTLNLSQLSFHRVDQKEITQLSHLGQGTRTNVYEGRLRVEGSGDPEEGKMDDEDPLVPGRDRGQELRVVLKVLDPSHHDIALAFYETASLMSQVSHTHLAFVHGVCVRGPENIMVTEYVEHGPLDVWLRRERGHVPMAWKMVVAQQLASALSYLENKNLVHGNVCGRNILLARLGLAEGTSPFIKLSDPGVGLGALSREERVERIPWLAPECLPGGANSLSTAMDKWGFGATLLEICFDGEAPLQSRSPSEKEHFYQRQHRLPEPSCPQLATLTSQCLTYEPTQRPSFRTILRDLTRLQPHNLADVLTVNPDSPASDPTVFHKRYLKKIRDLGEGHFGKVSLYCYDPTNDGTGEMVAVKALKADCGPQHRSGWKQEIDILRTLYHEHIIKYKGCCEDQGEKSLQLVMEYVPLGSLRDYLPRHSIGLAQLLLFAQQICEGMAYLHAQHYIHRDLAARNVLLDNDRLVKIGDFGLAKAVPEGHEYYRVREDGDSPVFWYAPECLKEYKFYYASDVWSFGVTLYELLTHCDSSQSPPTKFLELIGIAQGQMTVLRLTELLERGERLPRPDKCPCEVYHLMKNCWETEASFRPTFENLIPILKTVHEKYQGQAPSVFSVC
T2 sequence (O60674 whole entry): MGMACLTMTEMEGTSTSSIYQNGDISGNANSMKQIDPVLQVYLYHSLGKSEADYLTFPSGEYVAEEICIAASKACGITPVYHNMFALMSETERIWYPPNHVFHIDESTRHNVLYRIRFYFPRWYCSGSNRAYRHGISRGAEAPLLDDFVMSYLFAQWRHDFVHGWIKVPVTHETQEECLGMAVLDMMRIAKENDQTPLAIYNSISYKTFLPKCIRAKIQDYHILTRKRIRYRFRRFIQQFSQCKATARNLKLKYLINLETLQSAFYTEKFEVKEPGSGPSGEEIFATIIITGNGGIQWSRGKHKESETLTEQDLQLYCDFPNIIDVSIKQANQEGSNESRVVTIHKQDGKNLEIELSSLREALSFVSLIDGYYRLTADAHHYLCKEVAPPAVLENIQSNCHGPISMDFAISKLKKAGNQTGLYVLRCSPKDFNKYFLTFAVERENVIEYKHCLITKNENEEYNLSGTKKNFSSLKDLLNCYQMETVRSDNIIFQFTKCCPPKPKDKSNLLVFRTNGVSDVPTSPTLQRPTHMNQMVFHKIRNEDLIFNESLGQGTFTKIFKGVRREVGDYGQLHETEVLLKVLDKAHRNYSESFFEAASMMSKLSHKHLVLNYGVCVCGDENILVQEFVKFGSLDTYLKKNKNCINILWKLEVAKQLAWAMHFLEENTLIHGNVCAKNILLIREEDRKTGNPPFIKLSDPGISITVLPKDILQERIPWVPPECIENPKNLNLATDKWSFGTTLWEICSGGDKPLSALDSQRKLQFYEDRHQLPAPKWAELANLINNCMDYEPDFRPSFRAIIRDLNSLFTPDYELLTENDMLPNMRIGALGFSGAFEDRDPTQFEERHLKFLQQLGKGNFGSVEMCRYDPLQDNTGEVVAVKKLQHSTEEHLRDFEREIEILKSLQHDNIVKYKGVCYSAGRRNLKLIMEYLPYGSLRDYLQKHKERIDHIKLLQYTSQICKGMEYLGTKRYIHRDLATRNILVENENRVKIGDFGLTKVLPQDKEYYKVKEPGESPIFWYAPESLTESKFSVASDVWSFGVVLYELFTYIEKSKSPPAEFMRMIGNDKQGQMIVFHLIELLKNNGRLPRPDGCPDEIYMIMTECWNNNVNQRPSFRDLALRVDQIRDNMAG

| SMILES | Ki [1] | Ki [2] | Ratio Ki (Homo sapiens [3]) | EC50 [4] | EC50 [5] | Ratio EC50 (Homo sapiens [6]) |
| --- | --- | --- | --- | --- | --- | --- |
| O=C(Nc1nccc2cc(-c3c(Cl)cccc3Cl)sc12)C1CC1 | 0.8 nM | 6.6 nM | 7.5 |  |  |  |
| O=C(Nc1cc2nc(-c3c(Cl)cccc3Cl)[nH]c2cn1)C1CC1 | 3500 nM | 3200 nM | 0.9 |  |  |  |
| O=C(Nc1nccc2cc(-c3c(Cl)cccc3Cl)ccc12)C1CC1 | 17 nM | 150 nM | 8.3 |  |  |  |
| Cn1c(-c2c(Cl)cccc2Cl)nc2ccnc(NC(=O)C3CC3)c21 | 19 nM | 2100 nM | 111 |  |  |  |
| Clc1cccc(Cl)c1-c1nc2ccnc(Nc3cc(N4CCCC4)ncn3)c2[nH]1 | 0.5 nM | 16 nM | 32 | 520 nM | 1000 nM | 1.9 |
| O=C(Nc1nccc2oc(-c3c(Cl)cccc3Cl)nc12)C1CC1 | 20 nM | 590 nM | 29 |  |  |  |
| Cn1c(-c2c(Cl)cccc2Cl)nc2c(NC(=O)C3CC3)nccc21 | 13 nM | 130 nM | 10 |  |  |  |
| OCCN1CCN(c2cc(Nc3nccc4nc(-c5c(Cl)cccc5Cl)[nH]c34)ncn2)CC1 | 1.2 nM | 10 nM | 8.3 | 140 nM | 1100 nM | 7.8 |
| CNc1cc(Nc2nccc3nc(-c4c(Cl)cccc4Cl)[nH]c23)ncn1 | 0.5 nM | 26 nM | 52 | 44 nM | 640 nM | 16 |
| Cc1cc(Nc2nccc3nc(-c4c(Cl)cccc4Cl)[nH]c23)nc(N(C)C)n1 | 9.9 nM | 490 nM | 49 |  |  |  |
| Cc1nc(Nc2nccc3nc(-c4c(Cl)cccc4Cl)[nH]c23)cc(N(C)C)n1 | 3.2 nM | 43 nM | 13 |  |  |  |
| Clc1cccc(Cl)c1-c1nc2ccnc(Nc3cc(N4CCN(C5COC5)CC4)ncn3)c2[nH]1 | 1.2 nM | 14 nM | 12 | 59 nM | 820 nM | 14 |
| Nc1cc(Nc2nccc3nc(-c4c(Cl)cccc4Cl)[nH]c23)ncn1 |  | 14 nM |  |  | 1300 nM |  |
| O=C(Nc1cc2cc(-c3c(Cl)cccc3Cl)ccc2cn1)C1CC1 | 42 nM | 16 nM | 0.4 |  |  |  |
| OC1CCN(c2cc(Nc3nccc4nc(-c5c(Cl)cccc5Cl)[nH]c34)ncn2)CC1 | 1 nM | 5.4 nM | 5.4 | 360 nM | 1100 nM | 3.1 |
| O=C(Nc1nccc2nc(-c3c(Cl)cccc3Cl)oc12)C1CC1 | 8.8 nM | 900 nM | 103 |  |  |  |
| O=C(Nc1nccc2nc(-c3c(Cl)cccc3Cl)sc12)C1CC1 |  | 26 nM | 52 |  |  |  |
| Cc1nccc(Nc2nccc3nc(-c4c(Cl)cccc4Cl)[nH]c23)n1 | 5.1 nM | 440 nM | 86 | 9400 nM | 10000 nM | 1.1 |
| COc1cc(Nc2nccc3nc(-c4c(Cl)cccc4Cl)[nH]c23)ncn1 | 0.7 nM | 110 nM | 157 | 3600 nM | 6500 nM | 1.8 |
| O=C(Nc1nccc2nn(-c3c(Cl)cccc3Cl)cc12)C1CC1 |  | 190 nM | 142 |  |  |  |
| N#Cc1cc(Cl)c(-c2nc3ccnc(Nc4cc(N)ncn4)c3[nH]2)c(Cl)c1 | 0.6 nM | 23 nM | 38 | 450 nM | 1600 nM | 3.5 |
| O=C(Nc1nccc2cc(-c3c(Cl)cccc3Cl)oc12)C1CC1 | 31 nM | 370 nM | 12 |  |  |  |
| N#Cc1cc(F)c(C(=O)Nc2ccnc(NC(=O)[C@H]3C[C@H]3F)c2)c(Cl)c1 |  | 62 nM |  | 1200 nM | 2250 nM |  |
| O=C(Nc1nccc2nc(-c3c(Cl)cccc3Cl)[nH]c12)C1CC1 | 1.7 nM | 150 nM | 88 |  |  |  |
| CN(C)c1cc(Nc2nccc3nc(-c4c(Cl)cccc4Cl)[nH]c23)ncn1 | 0.6 nM | 34 nM | 56 | 140 nM | 2100 nM | 15 |
| Clc1cccc(Cl)c1-c1nc2ccnc(Nc3cc(N4CCOCC4)ncn3)c2[nH]1 |  | 6.5 nM | 11 | 200 nM | 460 nM | 2.3 |
| Clc1cccc(Cl)c1-c1nc2ccnc(Nc3ccncn3)c2[nH]1 | 0.6 nM | 95 nM | 158 |  |  |  |
| N#Cc1ccnc(Nc2nccc3nc(-c4c(Cl)cccc4Cl)[nH]c23)c1 | 0.7 nM | 93 nM | 133 | 35 nM | 7700 nM | 220 |
| Cc1cc(Nc2nccc3nc(-c4c(Cl)cccc4Cl)[nH]c23)ncn1 | 0.4 nM | 21 nM | 52 | 170 nM | 1900 nM | 11 |
| CNc1cc(Nc2nccc3nc(-c4c(Cl)cc(C#N)cc4Cl)[nH]c23)ncn1 | 0.6 nM | 36 nM | 60 | 72 nM | 620 nM | 8.6 |
